The source of these data is patent US10681908B2, “Molecules having pesticidal utility, and intermediates, compositions, and processes, related thereto” (Dow AgroSciences LLC, priority 2016, dated 2020).

Common to all, as to format: in vivo
The test system of data set [1] is Beet Armyworm (Spodoptera exigua, LAPHEG). Nature of the data set: Bioassay on Beet Armyworm (BAW), 128-well diet tray assay. Particulars: 168 h, 50 μg/cm^2 on artificial diet, second instar larvae, five to seven days, 25° C., read-out: BAW % Control (or Mortality) rating. The gist of the method:
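Artificial diet was surface-treated with 50 μg/cm^2 of compound in 90:10 acetone-water and dried; one to five second-instar larvae were placed per well, eight wells per treatment. Held at 25 °C, 14:10 light-dark, for five to seven days, then percent mortality per well was averaged.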

Data set [2] has as its system Cabbage Looper (Trichoplusia ni, TRIPNI). Nature of the data set: Bioassay on Cabbage Looper (CL), 128-well diet tray assay. Particulars: 168 h, 50 μg/cm^2 on artificial diet, second instar larvae, five to seven days, 25° C., read-out: CL % Control (or Mortality) rating. Summed up: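 Diet-tray assay: 1–5 second-instar larvae per well on artificial diet surface-treated with 50 μg/cm^2 compound (90:10 acetone-water, dried), eight wells per compound. Held at 25° C., 14:10 light-dark for five to seven days; percent mortality per well averaged across the eight wells.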

The test system of data set [3] is Yellow Fever Mosquito (Aedes aegypti, AEDSAE). The following applies: about 1 day-old larvae, 3 days, room temperature, scored on mortality. As for the experimental part: Example C: Bioassays on Yellow Fever Mosqurro (Aedes aegypti, AEDSAE) (“YFM”)
Certain molecules disclosed in this document were tested against YFM using procedures described in the following paragraph. In the reporting of the results, the “GPA & YFM Rating Table” was used (See Table Section).
Master plates containing 400 μg of a molecule dissolved in 100 μL of dimethyl sulfoxide (DMSO) (equivalent to a 4000 ppm solution) are used. A master plate of assembled molecules contains 15 μL per well. To this plate, 135 μL of a 90:10 water:acetone mixture is added to each well. A robot (Biomek® NXP Laboratory Automation Workstation) is programmed to dispense 15 μL aspirations from the master plate into an empty 96-well shallow plate (“daughter” plate). There are 6 reps (“daughter” plates) created per master. The created daughter plates are then immediately infested with YFM larvae.
The day before plates are to be treated, mosquito eggs are placed in Millipore water containing liver powder to begin hatching (4 g. into 400 mL). After the daughter plates are created using the robot, they are infested with 220 μL of the liver powder/larval mosquito mixture (about 1 day-old larvae). After plates are infested with mosquito larvae, a non-evaporative lid is used to cover the plate to reduce drying. Plates are held at room temperature for 3 days prior to grading. After 3 days, each well is observed and scored based on mortality. The results are indicated in the table entitled “Table ABC: Biological Results” (See Table Section).

As for `CCS(=O)(=O)C[C@@H](C)NC(=O)c1ccc(/C(F)=C/C(c2cc(C)c(Cl)c(C)c2)C(F)(F)F)cc1C(F)(F)F` (stereo partly drawn) [F53, 4-((Z)-3-(4-Chloro-3,5-dimethylphenyl)-1,4,4,4-tetrafluorobut-1-en-1-yl)-N—((R)-1-(ethylsulfonyl)propan-2-yl)-2-(trifluoromethyl)benzamide], the mortality at 50 µg/cm2 in data set [1] and in data set [2] was 50 to 100% in each case. Moreover, in data set [3], the “YFM % Control (or Mortality) rating” value is reported as “D (No activity noticed in this bioassay)”.
As to `C[C@H](CS(=O)(=O)CC(F)(F)F)NC(=O)c1ccc(/C(F)=C/C(c2ccc(Br)c(Br)c2)C(F)(F)F)cc1C(F)(F)F` (stereo partly drawn) [F54, 4-((Z)-3-(3,4-Dibromophenyl)-1,4,4,4-tetrafluorobut-1-en-1-yl)-N—((R)-1-((2,2,2-trifluoroethyl)sulfonyl)propan-2-yl)-2-(trifluoromethyl)benzamide], the mortality at 50 µg/cm2 in data set [1] and in data set [2] was 50 to 100% each time. The “YFM % Control (or Mortality) rating” value in data set [3] is “A (80-100)”.
Take `CCS(=O)(=O)C[C@@H](C)NC(=O)c1ccc(/C(F)=C/C(c2cc(Br)c(Cl)c(Br)c2)C(F)(F)F)cc1C(F)(F)F` (stereo partly drawn) [F55, 4-((Z)-3-(3,5-Dibromo-4-chlorophenyl)-1,4,4,4-tetrafluorobut-1-en-1-yl)-N—((R)-1-(ethylsulfonyl)propan-2-yl)-2-(trifluoromethyl)benzamide]: the mortality at 50 µg/cm2 in data set [1] and in data set [2] was 50 to 100% each time. The “YFM % Control (or Mortality) rating” value in data set [3] was “A (80-100)”.
As to `C[C@H](CS(=O)(=O)CC(F)(F)F)NC(=O)c1ccc(/C(F)=C/C(c2cc(Cl)cc(Br)c2)C(F)(F)F)cc1C(F)(F)F` (stereo partly drawn) [F65], the mortality at 50 µg/cm2 in data set [1] and in data set [2] was 50 to 100% in each case. Moreover, the “YFM % Control (or Mortality) rating” value in data set [3] is recorded as “B (More than 0-Less than 80)”.
In the case of `Cc1cc(C(/C=C(\F)c2ccc(C(=O)N[C@H](C)CS(=O)(=O)CC(F)(F)F)c(C(F)(F)F)c2)C(F)(F)F)cc(Cl)c1Cl` (stereo partly drawn) [F78, 4-((Z)-3-(3,4-Dichloro-5-methylphenyl)-1,4,4,4-tetrafluorobut-1-en-1-yl)-N—((R)-1-((2,2,2-trifluoroethyl)sulfonyl)propan-2-yl)-2-(trifluoromethyl)benzamide], the mortality at 50 µg/cm2 in data set [1] and in data set [2] was 50 to 100% each time. Also, the “YFM % Control (or Mortality) rating” value in data set [3] is recorded as “B (More than 0-Less than 80)”.
Take `C[C@H](CS(=O)(=O)CC(F)(F)F)NC(=O)c1ccc(/C(F)=C/C(c2ccc(C(F)(F)F)c(Cl)c2)C(F)(F)F)cc1C(F)(F)F` (stereo partly drawn) [F91]: the mortality at 50 µg/cm2 in data set [1] and in data set [2] was 50 to 100% in each case. Further, the “YFM % Control (or Mortality) rating” value in data set [3] is “D (No activity noticed in this bioassay)”.
As to `O=C(NCCSC(F)(F)F)c1ccc(/C(F)=C/C(c2cc(Cl)c(Cl)c(Cl)c2)C(F)(F)F)cc1C(F)(F)F` (stereo not drawn) [F92, (Z)-4-(1,4,4,4-tetrafluoro-3-(3,4,5-trichlorophenyl)but-1-en-1-yl)-2-(trifluoromethyl)-N-(2-((trifluoromethyl)thio)ethyl)benzamide], the mortality at 50 µg/cm2 in data set [1] and in data set [2] was 50 to 100% in each case. For the same molecule, the “YFM % Control (or Mortality) rating” value in data set [3] is “B (More than 0-Less than 80)”.
For `C[C@H](CS(=O)(=O)CC(F)(F)F)NC(=O)c1ccc(/C(F)=C/C(c2ccc(C(F)(F)F)c(Br)c2)C(F)(F)F)cc1C(F)(F)F` (stereo partly drawn) [F95, 4-((Z)-3-(3-Bromo-4-(trifluoromethyl)phenyl)-1,4,4,4-tetrafluorobut-1-en-1-yl)-N—((R)-1-((2,2,2-trifluoroethyl)sulfonyl)propan-2-yl)-2-(trifluoromethyl)benzamide], the mortality at 50 µg/cm2 in data set [1] and in data set [2] was 50 to 100% throughout. Moreover, the “YFM % Control (or Mortality) rating” value in data set [3] was “A (80-100)”.
On to `C[C@H](CS(=O)(=O)CC(F)(F)F)NC(=O)c1ccc(/C(F)=C/C(c2cc(Cl)c(Cl)c(Cl)c2)C(F)F)cc1C(F)(F)F` (stereo partly drawn) [F98, 4-((Z)-1,4,4-Trifluoro-3-(3,4,5-trichlorophenyl)but-1-en-1-yl)-N—((R)-1-((2,2,2-trifluoroethyl)sulfonyl)propan-2-yl)-2-(trifluoromethyl)benzamide], for which the mortality at 50 µg/cm2 in data set [1] and in data set [2] was 50 to 100% throughout. In addition, the “YFM % Control (or Mortality) rating” value in data set [3] is reported as “A (80-100)”.
Regarding `C[C@H](C[S+]([O-])CCF)NC(=O)c1ccc(/C(F)=C/C(c2cc(Cl)c(Cl)c(Cl)c2)C(F)(F)F)cc1C(F)(F)F` (stereo partly drawn) [F99, N-((2R)-1-((2-Fluoroethyl)sulfinyl)propan-2-yl)-4-((Z)-1,4,4,4-tetrafluoro-3-(3,4,5-trichlorophenyl)but-1-en-1-yl)-2-(trifluoromethyl)benzamide], the mortality at 50 µg/cm2 in data set [1] and in data set [2] was 50 to 100% throughout. Moreover, the “YFM % Control (or Mortality) rating” value in data set [3] is “A (80-100)”.
Take `C[C@H](CSCC(F)(F)F)NC(=O)c1ccc(/C(F)=C/C(c2ccc(F)c(C(F)(F)F)c2)C(F)(F)F)cc1C(F)(F)F` (stereo partly drawn) [F102, 4-((Z)-1,4,4,4-Tetrafluoro-3-(4-fluoro-3-(trifluoromethyl)phenyl)but-1-en-1-yl)-N—((R)-1-((2,2,2-trifluoroethyl)thio)propan-2-yl)-2-(trifluoromethyl)benzamide]: the mortality at 50 µg/cm2 in data set [1] and in data set [2] was 50 to 100% each time. The “YFM % Control (or Mortality) rating” value in data set [3] is on record as “A (80-100)”.
Take `C[C@H](CS(=O)(=O)CC(F)(F)F)NC(=O)c1ccc(/C(F)=C/C(c2cc(F)c(F)c(Cl)c2)C(F)(F)F)cc1C(F)(F)F` (stereo partly drawn) [F103, 4-((Z)-3-(3-Chloro-4,5-difluorophenyl)-1,4,4,4-tetrafluorobut-1-en-1-yl)-N—((R)-1-((2,2,2-trifluoroethyl)sulfonyl)propan-2-yl)-2-(trifluoromethyl)benzamide]: the mortality at 50 µg/cm2 in data set [1] and in data set [2] was 50 to 100% each time. Also, in data set [3], the “YFM % Control (or Mortality) rating” value was “A (80-100)”.
As to `C=Cc1c(Cl)cc(C(/C=C(\F)c2ccc(C(=O)N[C@H](C)CS(=O)(=O)CC)c(C(F)(F)F)c2)C(F)(F)F)cc1Cl` (stereo partly drawn) [F119, 4-((Z)-3-(3,5-Dichloro-4-vinylphenyl)-1,4,4,4-tetrafluorobut-1-en-1-yl)-N—((R)-1-(ethylsulfonyl)propan-2-yl)-2-(trifluoromethyl)benzamide], the mortality at 50 µg/cm2 in data set [1] and in data set [2] was 50 to 100% in each case. In data set [3], the “YFM % Control (or Mortality) rating” value was “A (80-100)”.
With `C[C@H](C[S+]([O-])CCC(F)(F)F)NC(=O)c1ccc(/C(F)=C/C(c2cc(Cl)c(Cl)c(Cl)c2)C(F)(F)F)cc1C(F)(F)F` (stereo partly drawn) [F121, 4-((Z)-1,4,4,4-Tetrafluoro-3-(3,4,5-trichlorophenyl)but-1-en-1-yl)-2-(trifluoromethyl)-N-((2R)-1-((3,3,3-trifluoropropyl)sulfinyl)propan-2-yl)benzamide], the mortality at 50 µg/cm2 in data set [1] and in data set [2] was 50 to 100% throughout. The “YFM % Control (or Mortality) rating” value in data set [3] was “A (80-100)”.
In the case of `O=C(NCCSCCF)c1ccc(/C(F)=C/C(c2cc(Cl)c(Cl)c(Cl)c2)C(F)(F)F)cc1C(F)(F)F` (stereo not drawn) [F125, (Z)—N-(2-((2-Fluoroethyl)thio)ethyl)-4-(1,4,4,4-tetrafluoro-3-(3,4,5-trichlorophenyl)but-1-en-1-yl)-2-(trifluoromethyl)benzamide], the mortality at 50 µg/cm2 in data set [1] and in data set [2] was 50 to 100% throughout. For the same molecule, in data set [3], the “YFM % Control (or Mortality) rating” value was “D (No activity noticed in this bioassay)”.
As for `C[C@H](CS(=O)(=O)CCC(F)(F)F)NC(=O)c1ccc(/C(F)=C/C(c2cc(Cl)c(Cl)c(Cl)c2)C(F)(F)F)cc1C(F)(F)F` (stereo partly drawn) [F130, 4-((Z)-1,4,4,4-tetrafluoro-3-(3,4,5-trichlorophenyl)but-1-en-1-yl)-2-(trifluoromethyl)-N—((R)-1-((3,3,3-trifluoropropyl)sulfonyl)propan-2-yl)benzamide], the mortality at 50 µg/cm2 in data set [1] and in data set [2] was 50 to 100% throughout. Besides, the “YFM % Control (or Mortality) rating” value in data set [3] is recorded as “B (More than 0-Less than 80)”.
`CCC(F)(F)c1cc(Cl)cc(C(/C=C(\F)c2ccc(C(=O)N[C@H](C)CS(=O)(=O)CC(F)(F)F)c(C(F)(F)F)c2)C(F)(F)F)c1` (stereo partly drawn) [F131, 4-((Z)-3-(3-Chloro-5-(1,1-difluoropropyl)phenyl)-1,4,4,4-tetrafluorobut-1-en-1-yl)-N—((R)-1-((2,2,2-trifluoroethyl)sulfonyl)propan-2-yl)-2-(trifluoromethyl)benzamide]: the mortality at 50 µg/cm2 in data set [1] and in data set [2] was 50 to 100% in each case. The “YFM % Control (or Mortality) rating” value in data set [3] is reported as “A (80-100)”.

The mortality is the share of the test organisms that died.
